Assay results published in the kinase profiling compilation of Christmann-Franck et al. (2016).

Columns and labels:
Assay in all cases: KINOMEscan competition binding
Conditions in all cases: compound 10.0 µM
MAPK10 (human) = MAPK10 (human) (UniProt P53779)
PHKG1 (human) = PHKG1 (human) (UniProt Q16816)
MAPK15 (human) = MAPK15 (human) (UniProt Q8TD08)
DYRK1B (human) = DYRK1B (human) (UniProt Q9Y463)
SRPK3 (human) = SRPK3 (human) (UniProt Q9UPE1)
AKT1 (human) = AKT1 (human) (UniProt P31749)
AKT3 (human) = AKT3 (human) (UniProt Q9Y243)
NLK (human) = NLK (human) (UniProt Q9UBE8)
LYN (human) = LYN (human) (UniProt P07948)
CDC42BPG (human) = CDC42BPG (human) (UniProt Q6DT37)
SIK1 (human) = SIK1 (human) (UniProt P57059)
SIK1 (human), sequence (P57059 whole entry, looked up): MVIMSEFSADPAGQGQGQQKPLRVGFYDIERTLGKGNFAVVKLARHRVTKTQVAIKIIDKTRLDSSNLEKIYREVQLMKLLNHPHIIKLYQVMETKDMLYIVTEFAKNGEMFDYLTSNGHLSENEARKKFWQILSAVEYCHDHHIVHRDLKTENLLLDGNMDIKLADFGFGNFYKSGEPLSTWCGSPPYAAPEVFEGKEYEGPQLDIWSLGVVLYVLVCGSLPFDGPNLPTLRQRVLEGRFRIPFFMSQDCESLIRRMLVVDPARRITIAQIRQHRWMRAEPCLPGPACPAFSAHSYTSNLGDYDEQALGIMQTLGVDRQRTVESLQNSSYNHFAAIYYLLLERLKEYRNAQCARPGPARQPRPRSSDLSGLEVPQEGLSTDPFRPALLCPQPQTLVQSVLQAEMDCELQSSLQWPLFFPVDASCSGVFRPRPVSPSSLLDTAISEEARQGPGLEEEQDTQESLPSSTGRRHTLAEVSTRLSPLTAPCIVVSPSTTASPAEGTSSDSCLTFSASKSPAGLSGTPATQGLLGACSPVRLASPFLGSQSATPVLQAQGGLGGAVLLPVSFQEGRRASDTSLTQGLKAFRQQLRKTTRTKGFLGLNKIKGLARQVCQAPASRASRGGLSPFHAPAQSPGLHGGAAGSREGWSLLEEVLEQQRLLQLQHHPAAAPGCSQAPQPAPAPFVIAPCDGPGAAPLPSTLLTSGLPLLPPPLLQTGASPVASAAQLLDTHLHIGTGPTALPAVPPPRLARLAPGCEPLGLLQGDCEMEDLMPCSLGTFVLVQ

CDC42BPA (human) = CDC42BPA (human) (UniProt Q5VT25)
EPHA8 (human) = EPHA8 (human) (UniProt P29322)
PDGFRB (human) = PDGFRB (human) (UniProt P09619)
PRKCE (human) = PRKCE (human) (UniProt Q02156)
CDK11B (human) = CDK11B (human) (UniProt P21127)
CDK11B (human), sequence (P21127 whole entry, looked up): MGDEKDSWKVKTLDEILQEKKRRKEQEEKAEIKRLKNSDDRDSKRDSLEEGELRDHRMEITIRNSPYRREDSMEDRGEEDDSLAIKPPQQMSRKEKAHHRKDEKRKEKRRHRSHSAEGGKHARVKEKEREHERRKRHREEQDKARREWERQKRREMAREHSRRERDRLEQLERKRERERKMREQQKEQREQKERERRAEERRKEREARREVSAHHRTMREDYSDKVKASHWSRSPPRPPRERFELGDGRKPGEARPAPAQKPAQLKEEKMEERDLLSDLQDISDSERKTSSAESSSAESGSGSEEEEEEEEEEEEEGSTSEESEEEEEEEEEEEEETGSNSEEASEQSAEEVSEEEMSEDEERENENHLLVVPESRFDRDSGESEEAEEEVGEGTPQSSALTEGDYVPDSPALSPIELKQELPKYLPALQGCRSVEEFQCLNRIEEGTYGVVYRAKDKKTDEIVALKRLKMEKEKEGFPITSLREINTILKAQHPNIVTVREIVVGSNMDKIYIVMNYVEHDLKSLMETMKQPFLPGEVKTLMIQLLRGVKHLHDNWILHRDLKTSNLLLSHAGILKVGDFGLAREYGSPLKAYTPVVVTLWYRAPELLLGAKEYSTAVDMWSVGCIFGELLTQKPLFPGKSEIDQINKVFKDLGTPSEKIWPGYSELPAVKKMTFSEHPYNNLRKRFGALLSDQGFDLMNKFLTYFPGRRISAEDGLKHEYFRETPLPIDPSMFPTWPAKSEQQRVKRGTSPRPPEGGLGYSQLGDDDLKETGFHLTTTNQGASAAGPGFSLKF

MAP2K4 (human) = MAP2K4 (human) (UniProt P45985)
PRKD3 (human) = PRKD3 (human) (UniProt O94806)
PAK3 (human) = PAK3 (human) (UniProt O75914)
PAK3 (human), sequence (O75914 whole entry, looked up): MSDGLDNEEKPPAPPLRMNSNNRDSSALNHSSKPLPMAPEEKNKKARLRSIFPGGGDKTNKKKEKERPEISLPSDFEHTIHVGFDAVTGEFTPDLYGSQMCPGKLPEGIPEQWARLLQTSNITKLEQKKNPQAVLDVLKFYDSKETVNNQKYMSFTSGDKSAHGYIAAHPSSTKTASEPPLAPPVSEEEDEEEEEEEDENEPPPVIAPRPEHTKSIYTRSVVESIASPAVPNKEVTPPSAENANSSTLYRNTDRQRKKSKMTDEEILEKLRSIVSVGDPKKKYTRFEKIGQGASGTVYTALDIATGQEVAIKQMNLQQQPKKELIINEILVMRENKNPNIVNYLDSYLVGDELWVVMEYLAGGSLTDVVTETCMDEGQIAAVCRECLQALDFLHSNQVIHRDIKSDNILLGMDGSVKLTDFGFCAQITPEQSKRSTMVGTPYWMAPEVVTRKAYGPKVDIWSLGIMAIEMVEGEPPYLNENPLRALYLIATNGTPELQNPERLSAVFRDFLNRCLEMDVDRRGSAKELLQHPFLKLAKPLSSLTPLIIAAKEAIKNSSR

MAP2K2 (human) = MAP2K2 (human) (UniProt P36507)
PTK2 (human) = PTK2 (human) (UniProt Q05397)
MKNK2 (human) = MKNK2 (human) (UniProt Q9HBH9)
RIOK1 (human) = RIOK1 (human) (UniProt Q9BRS2)
PIP5K1A (human) = PIP5K1A (human) (UniProt Q99755)
CDK14 (human) = CDK14 (human) (UniProt O94921)
[1] = tested on: EGFR (human), P00533 [752-759 del]
[2] = target: TYK2 JH2 pseudokinase (human) (UniProt P29597)
MAP4K3 (human) = MAP4K3 (human) (UniProt Q8IVH8)
CSF1R (human) = CSF1R (human) (UniProt P07333)
MAPK1 (human) = MAPK1 (human) (UniProt P28482)
RPS6KA2 KD2 (human) = RPS6KA2 KD2 (human) (UniProt Q15349)
RPS6KA2 KD2 (human), sequence (Q15349 whole entry, looked up): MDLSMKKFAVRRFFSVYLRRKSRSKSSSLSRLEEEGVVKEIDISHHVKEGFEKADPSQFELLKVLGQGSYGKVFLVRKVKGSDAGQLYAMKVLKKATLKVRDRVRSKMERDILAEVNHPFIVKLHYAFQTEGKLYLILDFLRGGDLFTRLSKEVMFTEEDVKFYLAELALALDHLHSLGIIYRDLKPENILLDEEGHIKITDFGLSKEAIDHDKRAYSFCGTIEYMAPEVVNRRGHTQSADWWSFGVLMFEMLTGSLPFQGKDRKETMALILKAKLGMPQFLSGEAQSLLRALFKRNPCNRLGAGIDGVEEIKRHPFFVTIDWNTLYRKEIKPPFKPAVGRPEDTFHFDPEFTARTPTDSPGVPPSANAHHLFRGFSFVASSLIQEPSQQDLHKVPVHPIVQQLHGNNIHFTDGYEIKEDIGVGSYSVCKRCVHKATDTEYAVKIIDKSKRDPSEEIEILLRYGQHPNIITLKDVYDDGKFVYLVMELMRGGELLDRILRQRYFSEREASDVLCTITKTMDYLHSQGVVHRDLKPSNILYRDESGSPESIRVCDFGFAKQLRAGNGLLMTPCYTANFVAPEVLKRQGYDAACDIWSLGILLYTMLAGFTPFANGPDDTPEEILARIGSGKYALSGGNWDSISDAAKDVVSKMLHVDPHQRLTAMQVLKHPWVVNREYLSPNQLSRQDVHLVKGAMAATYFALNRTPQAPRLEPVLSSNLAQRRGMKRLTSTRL

PAK6 (human) = PAK6 (human) (UniProt Q9NQU5)
MAP2K3 (human) = MAP2K3 (human) (UniProt P46734)
TTK (human) = TTK (human) (UniProt P33981)
TTK (human), sequence (P33981 whole entry, looked up): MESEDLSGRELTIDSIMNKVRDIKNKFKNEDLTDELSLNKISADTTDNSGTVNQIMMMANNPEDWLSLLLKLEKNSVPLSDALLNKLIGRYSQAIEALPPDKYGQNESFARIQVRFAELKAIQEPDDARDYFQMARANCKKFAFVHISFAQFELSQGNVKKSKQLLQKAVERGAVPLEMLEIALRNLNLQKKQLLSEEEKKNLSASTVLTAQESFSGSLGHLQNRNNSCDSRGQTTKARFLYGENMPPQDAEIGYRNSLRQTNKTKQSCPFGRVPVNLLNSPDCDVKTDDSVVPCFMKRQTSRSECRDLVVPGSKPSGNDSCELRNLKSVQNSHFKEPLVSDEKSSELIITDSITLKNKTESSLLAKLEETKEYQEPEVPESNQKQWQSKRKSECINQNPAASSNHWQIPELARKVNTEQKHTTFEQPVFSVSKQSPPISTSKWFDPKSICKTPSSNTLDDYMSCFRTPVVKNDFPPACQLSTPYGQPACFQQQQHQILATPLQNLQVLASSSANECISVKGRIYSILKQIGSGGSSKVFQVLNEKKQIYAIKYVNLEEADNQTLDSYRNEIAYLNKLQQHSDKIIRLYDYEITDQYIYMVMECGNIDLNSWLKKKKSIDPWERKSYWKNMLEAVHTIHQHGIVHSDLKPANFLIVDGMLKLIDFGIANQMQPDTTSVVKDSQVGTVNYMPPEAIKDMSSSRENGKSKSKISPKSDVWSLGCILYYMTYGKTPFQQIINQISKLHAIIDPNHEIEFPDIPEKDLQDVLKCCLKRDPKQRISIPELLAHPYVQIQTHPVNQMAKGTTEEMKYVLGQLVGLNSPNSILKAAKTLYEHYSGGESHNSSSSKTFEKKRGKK

DYRK1B (human), sequence (Q9Y463 whole entry, looked up): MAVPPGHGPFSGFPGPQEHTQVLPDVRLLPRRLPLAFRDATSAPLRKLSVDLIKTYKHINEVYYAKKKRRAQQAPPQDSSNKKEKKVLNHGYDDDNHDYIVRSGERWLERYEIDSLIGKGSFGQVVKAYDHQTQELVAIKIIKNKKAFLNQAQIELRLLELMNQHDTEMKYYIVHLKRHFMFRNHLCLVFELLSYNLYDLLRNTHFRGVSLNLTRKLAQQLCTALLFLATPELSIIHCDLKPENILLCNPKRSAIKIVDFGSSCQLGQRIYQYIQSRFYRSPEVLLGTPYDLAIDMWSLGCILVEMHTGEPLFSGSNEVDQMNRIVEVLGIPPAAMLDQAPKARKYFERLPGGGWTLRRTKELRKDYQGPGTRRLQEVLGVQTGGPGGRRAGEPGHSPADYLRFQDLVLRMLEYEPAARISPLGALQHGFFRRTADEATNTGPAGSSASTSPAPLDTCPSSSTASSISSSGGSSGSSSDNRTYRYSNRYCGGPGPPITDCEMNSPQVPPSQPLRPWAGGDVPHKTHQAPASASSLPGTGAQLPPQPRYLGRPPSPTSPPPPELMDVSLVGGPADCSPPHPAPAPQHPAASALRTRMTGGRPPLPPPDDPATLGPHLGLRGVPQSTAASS
SRPK3 (human), sequence (Q9UPE1 whole entry, looked up): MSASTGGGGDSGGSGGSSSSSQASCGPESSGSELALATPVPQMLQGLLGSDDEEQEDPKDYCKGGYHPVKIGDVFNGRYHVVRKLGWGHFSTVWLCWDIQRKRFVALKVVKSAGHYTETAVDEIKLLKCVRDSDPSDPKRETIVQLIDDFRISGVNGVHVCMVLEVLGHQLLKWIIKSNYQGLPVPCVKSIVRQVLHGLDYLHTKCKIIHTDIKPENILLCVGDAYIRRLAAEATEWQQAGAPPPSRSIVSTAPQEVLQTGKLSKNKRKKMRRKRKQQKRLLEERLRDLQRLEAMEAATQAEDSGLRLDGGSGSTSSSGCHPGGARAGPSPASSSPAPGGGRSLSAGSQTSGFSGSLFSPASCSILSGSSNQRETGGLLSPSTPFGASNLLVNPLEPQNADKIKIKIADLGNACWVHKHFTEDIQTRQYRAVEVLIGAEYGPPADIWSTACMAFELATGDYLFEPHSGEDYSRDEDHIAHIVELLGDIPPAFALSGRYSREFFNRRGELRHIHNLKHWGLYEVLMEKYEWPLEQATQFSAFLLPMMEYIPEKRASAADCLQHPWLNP

kinase still bound, per cent of control (MAPK10 (human)) [%]	kinase still bound, per cent of control (PHKG1 (human)) [%]	kinase still bound, per cent of control (DYRK1B (human)) [%]	kinase still bound, per cent of control (AKT1 (human)) [%]	kinase still bound, per cent of control (AKT3 (human)) [%]	kinase still bound, per cent of control (NLK (human)) [%]	kinase still bound, per cent of control (LYN (human)) [%]	kinase still bound, per cent of control (CDC42BPG (human)) [%]	kinase still bound, per cent of control (SIK1 (human)) [%]	kinase still bound, per cent of control (CDC42BPA (human)) [%]	kinase still bound, per cent of control (EPHA8 (human)) [%]	kinase still bound, per cent of control (PDGFRB (human)) [%]	kinase still bound, per cent of control (PRKCE (human)) [%]	kinase still bound, per cent of control (CDK11B (human)) [%]	kinase still bound, per cent of control (MAP2K4 (human)) [%]	kinase still bound, per cent of control (PRKD3 (human)) [%]	kinase still bound, per cent of control (PAK3 (human)) [%]	kinase still bound, per cent of control (MAP2K2 (human)) [%]	kinase still bound, per cent of control (PTK2 (human)) [%]	SMILES	kinase still bound, per cent of control (MAPK15 (human)) [%]	further results
17	100	8.8	100	100	100	22	100	11	100	100	8.4	18	100	100	100	1	5.2	0	CNC(=O)c1ccc(Nc2cc(Nc3ccccc3S(=O)(=O)C(C)C)c3cc[nH]c3n2)nc1	8	kinase still bound, per cent of control (SRPK3 (human)): 12%; kinase still bound, per cent of control (MKNK2 (human)): 100%; kinase still bound, per cent of control (RIOK1 (human)): 2%; kinase still bound, per cent of control (PIP5K1A (human)): 4.6%; kinase still bound, per cent of control (CDK14 (human)): 100%; kinase still bound, per cent of control [1]: 100%; kinase still bound, per cent of control [2]: 0.95%; kinase still bound, per cent of control (MAP4K3 (human)): 1%; kinase still bound, per cent of control (CSF1R (human)): 30%; kinase still bound, per cent of control (MAPK1 (human)): 22%; kinase still bound, per cent of control (RPS6KA2 KD2 (human)): 100%; kinase still bound, per cent of control (PAK6 (human)): 100%; kinase still bound, per cent of control (MAP2K3 (human)): 10%; kinase still bound, per cent of control (TTK (human)): 4.6%
100	100	100	100	100	100	100	100	100	100	100	38	100	100	100	100	100	100	100	CCN(CC)CCCCNc1ncc2cc(-c3cc(OC)cc(OC)c3)c(NC(=O)NC(C)(C)C)nc2n1	100	kinase still bound, per cent of control (MKNK2 (human)): 100%; kinase still bound, per cent of control (RIOK1 (human)): 100%; kinase still bound, per cent of control (PIP5K1A (human)): 100%; kinase still bound, per cent of control (CDK14 (human)): 100%; kinase still bound, per cent of control (MAP4K3 (human)): 100%; kinase still bound, per cent of control (CSF1R (human)): 6.6%; kinase still bound, per cent of control (MAPK1 (human)): 100%; kinase still bound, per cent of control (RPS6KA2 KD2 (human)): 100%; kinase still bound, per cent of control (PAK6 (human)): 100%; kinase still bound, per cent of control (MAP2K3 (human)): 100%; kinase still bound, per cent of control (TTK (human)): 100%
100	100	100	100	100	100	5	100	31	100	100	0	100	100	100	100	100	100	100	C=CC(=O)Nc1ccc(CN(C(=O)Nc2c(Cl)c(OC)cc(OC)c2Cl)c2cc(Nc3ccc(N4CCN(C)CC4)cc3)ncn2)cc1	100	kinase still bound, per cent of control (SRPK3 (human)): 100%; kinase still bound, per cent of control (MKNK2 (human)): 100%; kinase still bound, per cent of control (RIOK1 (human)): 100%; kinase still bound, per cent of control (PIP5K1A (human)): 100%; kinase still bound, per cent of control (CDK14 (human)): 100%; kinase still bound, per cent of control [1]: 2.3%; kinase still bound, per cent of control [2]: 100%; kinase still bound, per cent of control (MAP4K3 (human)): 7.4%; kinase still bound, per cent of control (CSF1R (human)): 0%; kinase still bound, per cent of control (MAPK1 (human)): 100%; kinase still bound, per cent of control (RPS6KA2 KD2 (human)): 100%; kinase still bound, per cent of control (PAK6 (human)): 100%; kinase still bound, per cent of control (MAP2K3 (human)): 100%; kinase still bound, per cent of control (TTK (human)): 100%

SMILES	kinase still bound, per cent of control (MAPK10 (human)) [%]	kinase still bound, per cent of control (PHKG1 (human)) [%]	kinase still bound, per cent of control (DYRK1B (human)) [%]	kinase still bound, per cent of control (AKT1 (human)) [%]	kinase still bound, per cent of control (AKT3 (human)) [%]	kinase still bound, per cent of control (NLK (human)) [%]	kinase still bound, per cent of control (LYN (human)) [%]	kinase still bound, per cent of control (CDC42BPG (human)) [%]	kinase still bound, per cent of control (SIK1 (human)) [%]	kinase still bound, per cent of control (CDC42BPA (human)) [%]	kinase still bound, per cent of control (EPHA8 (human)) [%]	kinase still bound, per cent of control (PDGFRB (human)) [%]	kinase still bound, per cent of control (PRKCE (human)) [%]	kinase still bound, per cent of control (CDK11B (human)) [%]	kinase still bound, per cent of control (MAP2K4 (human)) [%]	kinase still bound, per cent of control (PRKD3 (human)) [%]	kinase still bound, per cent of control (PAK3 (human)) [%]	kinase still bound, per cent of control (MAP2K2 (human)) [%]	kinase still bound, per cent of control (PTK2 (human)) [%]	kinase still bound, per cent of control (MAPK15 (human)) [%]	further results
Cc1n[nH]c2ccc(-c3cncc(OC[C@@H](N)Cc4c[nH]c5ccccc45)c3)cc12	25	8	0	1.8	2.9	100	100	0.8	100	6.6	100	28	0	100	100	1.6	100	100	100	0	kinase still bound, per cent of control (SRPK3 (human)): 0.95%; kinase still bound, per cent of control (MKNK2 (human)): 13%; kinase still bound, per cent of control (RIOK1 (human)): 2.8%; kinase still bound, per cent of control (PIP5K1A (human)): 9.4%; kinase still bound, per cent of control (CDK14 (human)): 9.8%; kinase still bound, per cent of control [2]: 100%; kinase still bound, per cent of control (MAP4K3 (human)): 9.5%; kinase still bound, per cent of control (CSF1R (human)): 100%; kinase still bound, per cent of control (MAPK1 (human)): 100%; kinase still bound, per cent of control (RPS6KA2 KD2 (human)): 100%; kinase still bound, per cent of control (PAK6 (human)): 16%; kinase still bound, per cent of control (MAP2K3 (human)): 7.1%; kinase still bound, per cent of control (TTK (human)): 100%
